# Data from patent US7858794B2, “Tetrahydroquinoline derivatives” (N.V. Organon, priority 2002, dated 2010).
# Target: T1, human FSH receptor (Homo sapiens, UniProt P23945)
# T1 construct: expressed in transfected cells; host or cells: Chinese Hamster Ovary (CHO) cells
# T1 sequence (P23945 18-695): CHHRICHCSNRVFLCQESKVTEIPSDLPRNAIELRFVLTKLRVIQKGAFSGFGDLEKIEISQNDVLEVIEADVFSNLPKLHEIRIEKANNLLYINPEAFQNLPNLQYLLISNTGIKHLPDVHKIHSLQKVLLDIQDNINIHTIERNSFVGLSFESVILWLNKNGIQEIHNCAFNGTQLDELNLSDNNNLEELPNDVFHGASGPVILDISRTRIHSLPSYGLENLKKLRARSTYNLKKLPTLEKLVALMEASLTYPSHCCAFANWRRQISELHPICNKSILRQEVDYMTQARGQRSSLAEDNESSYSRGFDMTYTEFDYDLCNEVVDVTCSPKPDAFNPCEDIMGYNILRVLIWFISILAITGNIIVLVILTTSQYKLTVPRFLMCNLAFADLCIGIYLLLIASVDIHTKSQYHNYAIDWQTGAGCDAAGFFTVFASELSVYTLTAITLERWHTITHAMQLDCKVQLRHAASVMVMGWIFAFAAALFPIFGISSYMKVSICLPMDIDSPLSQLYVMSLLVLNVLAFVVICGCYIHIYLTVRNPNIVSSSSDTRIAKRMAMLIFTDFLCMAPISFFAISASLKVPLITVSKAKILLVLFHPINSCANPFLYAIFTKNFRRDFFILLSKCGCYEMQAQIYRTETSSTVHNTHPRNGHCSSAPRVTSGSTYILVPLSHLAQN
# Test: CHO-FSH in vitro bioactivity (CRE-luciferase reporter, agonistic or antagonistic set-up)
# Assay type: cell-based
# Details: CHO cells stably transfected with human FSH receptor and CRE-luciferase; either agonistic or antagonistic (rec-hFSH, 10 mU/ml) assay set-up or both / at least one of the assays; read-out: EC50 (IC50)
# Method: FSH activity of compounds were tested in Chinese Hamster Ovary (CHO) cells stably transfected with the human FSH receptor and cotransfected with a cAMP responsive element (CRE)/promotor directing the expression of a firefly luciferase reporter gene. Binding of ligand to the Gs-coupled FSH receptor will result in an increase of cAMP, which in turn will induce an increased transactivation of the luciferase reporter construct. To test antagonistic properties recombinant FSH in a concentration that induces approximately 80% of the maximal stimulation of cAMP accumulation in the absence of test compound was added (rec-hFSH, 10 mU/ml). The luciferase signal was quantified using a luminescence counter. For test compounds, EC50 values (concentration of test compound causing half-maximal (50%) stimulation or reduction) were calculated For that purpose the software program GraphPad PRISM, version 3.0 (GraphPad software Inc., San Diego) was used.
row,SMILES,EC50
1,"CC(=O)N1c2cc(N(C)C)c(NC(=O)C(C)C)cc2C(C)(c2ccccc2)CC1(C)C (stereo not shown) [Example 38, N-(1-Acetyl-7-dimethylamino-2,2,4-trimethyl-4-phenyl-1,2,3,4-tetrahydro-quinolin-6-yl)-isobutyramide]",< 100 nM
2,"CC(=O)N1c2cc(N(C)C)c(NC(=O)C3CCCC3)cc2C(C)(c2ccccc2)CC1(C)C (stereo not shown) [Example 37, Cyclopentanecarboxylic acid (1-acetyl-7-dimethylamino-2,2,4-trimethyl-4-phenyl-1,2,3,4-tetrahydro-quinolin-6yl)-amide]",< 100 nM
3,"CCNc1cc2c(cc1NC(=O)c1ccc(-c3ccccc3)cc1)C(C)(c1ccccc1)CC(C)(C)N2C(C)=O (stereo not shown) [Example 41, Biphenyl-4-carboxylic acid (1-acetyl-7-ethylamino-2,2,4-trimethyl-4-phenyl-1,2,3,4-tetrahydro-quinolin-6-yl)amide]",< 100 nM
4,"CC(=O)N1c2cc(OCC(=O)N(C)C)c(NC(=O)c3ccc(-c4ccccc4)cc3)cc2C(C)(c2ccccc2)CC1(C)C (stereo not shown) [Example 16, Biphenyl-4-carboxylic acid (1-acetyl-7-dimethylcarbamoylmethoxy-2,2,4-trimethyl-4-phenyl-1,2,3,4-tetrahydro-quinolin-6-yl)-amide]",< 100 nM
